For data set [1], the system named is high-ethanol–consuming rats. The note with it: .3–1 mg/kg, IP; 30 min and 24 hours of ethanol access; cited from earlier work.
Data set [2] deals with low-ethanol–consuming rats. Briefly: Continuous-access 10% ethanol two-bottle-choice drinking paradigm. To be noted: for Preference for Ethanol: continuous access to 10% ethanol, mean ± SEM, n = 12.
For data set [3], the system named is high-ethanol–consuming rats. To be noted: for Preference for Ethanol: intermittent access to 20% ethanol, 24 hours, mean ± SEM, n = 12; for Ethanol consumption compared with vehicle: after 24 hours of ethanol access, intermittent access 20% ethanol; for Ethanol intake after 30 min: after 30 min of ethanol access, Figures 2A-2C in Supplement 1.
Data set [4] concerns the target T1, DOP-R (Rattus norvegicus, UniProt P33533). It counts as biochemical. To be noted: striatal membranes.
Data set [5] can be described thus: Preliminary pharmacokinetics in plasma. It counts as in vivo. To be noted: IP, rat plasma.
In data set [6] the test system is rats. Description: Morphine-mediated analgesia. It counts as in vivo, rat. To be noted: Figures 1A and 1B in Supplement 1.
Data set [7] concerns rats. Briefly: Conditioned place preference. It counts as in vivo, rat. The note with it: Figure 1C in Supplement 1.
In data set [8] the test system is rats. Description: Anxiety. In kind it is in vivo, rat. The note with it: Figure 1D in Supplement 1.
In data set [9] the target is δ opioid peptide receptor (DOP-R). The note with it: cited from earlier work.
Data set [10] deals with μ opioid peptide receptor (MOP-R). To be noted: cited from earlier work.
For data set [11], the system named is high-ethanol–consuming rats. Briefly: Daily administration for 28 days, intermittent-access 20% ethanol, naive rats.
Data set [12] addresses T1, DOP-R. It counts as biochemical. To be noted: [35S]GTPγS binding. In general terms: GTPγS is a poorly hydrolysed GTP analogue; its binding reports G protein activation.

Counter-ions that a name gives are not always drawn. Like-named read-outs stand apart in the source and are kept apart here. Marks after values point to notes of the source that are not given here. Bounds are passed on as bounds.

The values below come from publication PMC3888668 (Biological psychiatry, 2008).

T1 sequence (P33533 whole entry): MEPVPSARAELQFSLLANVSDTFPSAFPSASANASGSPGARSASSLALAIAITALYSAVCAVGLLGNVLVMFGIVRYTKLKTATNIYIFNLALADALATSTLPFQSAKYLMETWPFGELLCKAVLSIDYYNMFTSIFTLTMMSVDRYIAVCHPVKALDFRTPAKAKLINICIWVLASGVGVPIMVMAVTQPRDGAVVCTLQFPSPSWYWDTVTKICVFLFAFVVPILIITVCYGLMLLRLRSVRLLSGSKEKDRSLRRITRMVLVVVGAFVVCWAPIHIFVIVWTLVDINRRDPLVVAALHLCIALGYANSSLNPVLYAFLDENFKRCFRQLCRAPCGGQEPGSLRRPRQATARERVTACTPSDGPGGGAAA

In the case of `O=C1CC[C@@]2(O)[C@H]3Cc4ccc(O)c5c4[C@@]2(CCN3CC2CC2)[C@H]1O5` [Naltrexone], the “Ethanol intake at lower doses” value in data set [1] was “reduce ethanol intake after 30 min but not after 24 hours”. Further, the “Preference for Ethanol” value in data set [2] (5 mg/kg IP, 24 hours) is 32.7 ± 5.9%; in [2] (15 mg/kg IP, 24 hours), 33.8 ± 7.3%; in data set [2] (30 mg/kg IP, 24 hours), 37.0 ± 4.9%; in data set [3] (5 mg/kg IP) it was 55.2 ± 7.1%; in [3] (15 mg/kg IP), 54.1 ± 6.4%; in data set [3] (30 mg/kg IP) it was 54.4 ± 4.7%. The “Ethanol consumption compared with vehicle” value in data set [2] (all doses (5, 15, 30 mg/kg IP), after 24 hours of access, continuous access 10% ethanol) was “did not produce any significant effect on ethanol consumption”; in data set [3] (15 and 30 mg/kg IP) it was “significantly reduce ethanol consumption”. Moreover, the “Ethanol consumption after a limited access period” value in data set [2] (limited access period 1 hour, continuous access 10% ethanol, data not shown) is listed as “a reduction in ethanol consumption was observed”. For the same compound, the “Ethanol intake after 30 min” value in data set [3] is “selectively reduced ethanol intake”.
On to `Oc1ccc2c3c1O[C@H]1c4[nH]c5ccccc5c4C[C@@]4(O)[C@@H](C2)N(CC2CC2)CC[C@]314` [Naltrindole, naltrindole], for which the IC50 on DOP-R [4] (Mean (± SEM) IC50 for Striatal DOP-R Inhibition, DPDPE Inhibition, DPDPE (10 μmol/L)-stimulated [35S]GTPγS binding) is 0.4 ± 0.02 nM; on DOP-R [4] (Mean (± SEM) IC50 for Striatal DOP-R Inhibition, SNC80 Inhibition, SNC80 (10 μmol/L)-stimulated [35S]GTPγS binding), 31 ± 3.9 nM; at DOP-R [4] (Mean (± SEM) IC50 for Striatal DOP-R Inhibition, TAN67 Inhibition, TAN67 (10 μmol/L)-stimulated [35S]GTPγS binding), more than 10000 nM. Besides, the “Preference for Ethanol” value is 38.2 ± 3.7% in data set [2] (1 mg/kg IP, 24 hours); 31.7 ± 4.0% in [2] (5 mg/kg IP, 24 hours); 31.0 ± 3.3% in data set [2] (10 mg/kg IP, 24 hours); 53.4 ± 7.9% in [3] (1 mg/kg IP); 55.1 ± 8.3% in data set [3] (5 mg/kg IP); 48.8 ± 6.1% in data set [3] (10 mg/kg IP). Further, the “Ethanol consumption compared with vehicle” value in [2] (5 and 10 mg/kg IP, 24 hours, continuous access 10% ethanol) is given as “significantly reduce ethanol consumption”; in data set [3] (all doses tested, IP), “did not significantly affect ethanol consumption”.
As to `Oc1ccc2c3c1O[C@H]1c4ncc(-c5ccc(Cl)cc5)cc4C[C@@]4(O)[C@@H](C2)N(CC2CC2)CC[C@]314` [SoRI-9409, 5’-(4-Chlorophenyl)-17-(cyclopropylmethyl)-6,7-didehydro-3,14-dihydroxy-4,5-α-epoxypyrido-[2’,3’:6,7]morphinan], the concentration for half-maximal inhibition (IC50) amounted to 3.5 ± 0.3 nM at DOP-R [4] (read-out: Mean (± SEM) IC50 for Striatal DOP-R Inhibition, DPDPE Inhibition, DPDPE (10 μmol/L)-stimulated [35S]GTPγS binding); 31 ± 3.2 nM at DOP-R [4] (read-out: Mean (± SEM) IC50 for Striatal DOP-R Inhibition, SNC80 Inhibition, SNC80 (10 μmol/L)-stimulated [35S]GTPγS binding); 56 ± 8.2 nM at DOP-R [4] (read-out: Mean (± SEM) IC50 for Striatal DOP-R Inhibition, TAN67 Inhibition, TAN67 (10 μmol/L)-stimulated [35S]GTPγS binding). In addition, in [5], the “Detection in plasma after dosing” value was “still detectable in plasma at 12 hours after dosing”. The same compound had an Elimination half-life in [5] (preliminary investigation) of 2.5 h. For the same compound, the “Induction of analgesia and hyperalgesia” value in the data set on rats [6] is “did not reduce morphine-mediated analgesia or induce analgesia and hyperalgesia”. The “Conditioned place preference or aversion” value in the data set with rats [7] is given as “does not produce conditioned place preference or aversion”. The “Anxiolytic or anxiogenic effect” value in the data set with rats [8] was “is not anxiolytic or anxiogenic”. The Ki in data set [9] (read-out: Ki, binding affinity at the DOP-R) was 2.2 ± 0.2 nM; in data set [10] (read-out: Ki, binding affinity for the MOP-R), 51 ± 8 nM. Also, the “higher binding affinity at the DOP-R relative to naltrexone” value in [9] (versus naltrexone structure) is “approximately 20 fold”. For the same compound, in data set [10] (versus naltrexone structure), the “reduced binding affinity for the MOP-R relative to naltrexone” value is on record as “approximately 20 fold”. The “Ethanol consumption compared with vehicle” value in [2] (5 mg/kg IP, 24 hours, continuous access 10% ethanol) is reported as “but not the 5-mg/kg dose”; in [2] (15 and 30 mg/kg IP, 24 hours, continuous access 10% ethanol) it was “significantly reduce ethanol consumption”; in data set [3] (all doses tested, IP), “significantly reduced ethanol consumption at all doses”. For the same compound, the “Preference for Ethanol” value is 39.5 ± 8.6% in data set [2] (5 mg/kg IP, 24 hours); 32.4 ± 7.3 ^b % in data set [2] (15 mg/kg IP, 24 hours); 24.0 ± 6.2 ^b % in data set [2] (30 mg/kg IP, 24 hours); 49.9 ± 7.3% in data set [3] (5 mg/kg IP); 42.1 ± 7.4 ^a % in data set [3] (15 mg/kg IP); 32.8 ± 4.9 ^a % in data set [3] (30 mg/kg IP). The “Ethanol intake after 30 min” value in [3] is “selectively reduced ethanol intake”. Moreover, in data set [3] (high-ethanol–consuming animals), the “Effectiveness at reducing ethanol consumption compared with naltrexone or naltrindole” value is given as “threefold more effective”. For the same compound, in data set [11] (5 mg/kg IP daily for 28 days (12 ethanol exposures), n = 16), the “Escalation and maintenance of ethanol intake compared with vehicle” value is “significantly reduced the escalation and maintenance of ethanol intake”. Besides, the “Reduction of ethanol intake compared with saline-treated rats” value in [11] (5 mg/kg IP daily, for up to 28 days) was more than 50%.
Consider `CN1CCC2(c3cccc(O)c3)Cc3nc4ccccc4cc3CC2C1` (stereo not drawn) [TAN67, (2-methyl-4a (α)-(3-hydroxyphenyl)-1,2,3,4,4a,5,12, 12a(α)-octahydro-quinolino[2,3,3,g]isoquinoline) dihydrobromide], for which the EC50 was 3700 ± 2200 nM at DOP-R [12] (read-out: Mean (± SEM) EC50 for DOP-R Stimulation, Spinal Cord, spinal cord membranes) and 372 ± 20 nM on DOP-R [12] (read-out: Mean (± SEM) EC50 for DOP-R Stimulation, Striatum, striatum membranes).

As usually defined, the IC50 is the point on the concentration scale where inhibition reaches its midpoint. For orientation: Ki means the dissociation constant of the complex between target and ligand, obtained from inhibition or displacement. One may read the EC50 as the concentration that produces a half-maximal response.
